Measured values from patent US20130184222A1, “[…] ACTIVE COMPOSITIONS AND THEIR METHODS OF USE” (AGIOS PHARMACEUTICALS, INC, priority 2010, published 2013).

Target: IDH1 R132H (Homo sapiens, UniProt O75874, R132H)
Assay: In vitro assay for IDH1 R132H inhibitors (NADPH/aKG, resazurin detection)
Format: biochemical
Conditions: Table 4A; 0.2 μg/ml IDH1 R132H, 50 minutes at room temperature; read-out: IC50 (uM), IDH1 R132H Inhibition
Description: Assays were conducted in a volume of 76 μl assay buffer (150 mM NaCl, 10 mM MgCl2, 20 mM Tris pH 7.5, 0.03% bovine serum albumin) as follows in a standard 384-well plate: To 25 ul of substrate mix (8 uM NADPH, 2 mM aKG), 1 μl of test compound was added in DMSO. The plate was centrifuged briefly, and then 25 μl of enzyme mix was added (0.2 μg/ml IDH1 R132H) followed by a brief centrifugation and shake at 100 RPM. The reaction was incubated for 50 minutes at room temperature, then 25 μl of detection mix (30 μM resazurin, […]) was added and the mixture further incubated for 5 minutes at room temperature. The conversion of resazurin to resorufin was detected by fluorescent spectroscopy at Ex544 Em590 c/o 590.
The compounds of Formula I set forth in Table 1 and the compounds set forth in Table 2 were tested in this assay and the results set forth below in Table 4A and 4B.

Chain of IDH1 R132H (O75874 whole entry R132H): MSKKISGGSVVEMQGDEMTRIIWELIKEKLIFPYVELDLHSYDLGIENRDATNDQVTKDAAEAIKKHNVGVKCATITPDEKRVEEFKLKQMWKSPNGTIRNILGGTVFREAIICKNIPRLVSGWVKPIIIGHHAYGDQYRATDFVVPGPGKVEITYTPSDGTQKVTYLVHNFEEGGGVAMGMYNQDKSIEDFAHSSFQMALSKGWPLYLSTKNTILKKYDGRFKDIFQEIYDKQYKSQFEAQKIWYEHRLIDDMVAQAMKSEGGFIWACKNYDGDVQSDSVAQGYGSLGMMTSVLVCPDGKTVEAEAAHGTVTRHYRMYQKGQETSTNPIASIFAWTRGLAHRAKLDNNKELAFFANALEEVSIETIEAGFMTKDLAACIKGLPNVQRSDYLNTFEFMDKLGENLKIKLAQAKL

| Structure (SMILES) | IC50 |
| --- | --- |
| Cc1ccccc1C(C(=O)NC1CCCCCC1)N(C(=O)Cc1cccs1)c1cccc(F)c1 (stereo not shown) [Compound 80] | ≤ 0.1 µM |
| O=C(NC1CCCCC1)C(c1ccccn1)N(C(=O)Cc1cccs1)c1cccc(F)c1 (stereo not shown) [Compound 81] | 1 to 10 µM |
| O=C(NC1CCCCC1)C(Cc1ccccc1)N(C(=O)Cc1cccs1)c1cccc(F)c1 (stereo not shown) [Compound 82] | 1 to 10 µM |
| O=C(NC1CCCCC1)C(c1ccc(-n2ccnc2)cc1)N(C(=O)Cc1cccs1)c1cccc(F)c1 (stereo not shown) [Compound 83] | 10 to 100 µM |
| O=C(NC1CCCCC1)C(c1ccc(C(F)(F)F)cc1)N(C(=O)Cc1cccs1)c1cccc(F)c1 (stereo not shown) [Compound 84] | ≥ 100 µM |
| COCOc1ccc(C(C(=O)NC2CCCCC2)N(C(=O)Cc2cccs2)c2cccc(F)c2)cc1 (stereo not shown) [Compound 85] | 1 to 10 µM |
| CCCCc1ccc(C(C(=O)NC2CCCCC2)N(C(=O)Cc2cccs2)c2cccc(F)c2)cc1 (stereo not shown) [Compound 86] | ≥ 100 µM |
| O=C(NC1CCCCC1)C(c1ccc(Br)o1)N(C(=O)Cc1cccs1)c1cccc(F)c1 (stereo not shown) [Compound 87] | 0.1 to 1 µM |
| CC(C)Cc1ccc(C(C(=O)NC2CCCCC2)N(C(=O)Cc2cccs2)c2cccc(F)c2)cc1 (stereo not shown) [Compound 88] | ≥ 100 µM |
| CCCCCCCCOc1ccc(C(C(=O)NC2CCCCC2)N(C(=O)Cc2cccs2)c2cccc(F)c2)cc1 (stereo not shown) [Compound 93] | 0.1 to 1 µM |
| O=C(NC1CCCCC1)C(c1cccs1)N(C(=O)Cc1cccs1)c1cccc(F)c1 (stereo not shown) [Compound 94] | 0.1 to 1 µM |
| Cc1ccccc1C(C(=O)NC1CCCCC1)N(C(=O)Cc1cccs1)c1cccc(Cl)c1Cl (stereo not shown) [Compound 97] | 1 to 10 µM |
| Cc1ccccc1C(C(=O)NC1CCCCC1)N(C(=O)Cc1cccs1)c1ccccc1Br (stereo not shown) [Compound 98] | 0.1 to 1 µM |
| Cc1cccc(N(C(=O)Cc2cccs2)C(C(=O)NC2CCCCC2)c2ccccc2C)c1 (stereo not shown) [Compound 99] | ≤ 0.1 µM |
| O=C(NC1CCCCC1)C(c1ccccc1)N(C(=O)Cc1cccs1)c1ccccc1 (stereo not shown) [Compound 100] | 0.1 to 1 µM |
| Cc1ccccc1C(C(=O)NC1CCCCC1)N(C(=O)Cc1cccs1)c1ccc2c(c1)OCO2 (stereo not shown) [Compound 101] | 0.1 to 1 µM |

The next lines start with the values.

| IC50 | Structure (SMILES) |
| --- | --- |
| 1 to 10 µM | O=C(NC1CCCCC1)C(c1ccncc1)N(C(=O)Cc1cccs1)c1cccc(F)c1 (stereo not shown) [Compound 76] |
| ≥ 100 µM | COc1ccc(C(C(=O)NC2CCCCC2)N(C(=O)Cc2cccs2)c2cccc(F)c2)cc1 (stereo not shown) [Compound 77] |
| 0.1 to 1 µM | Cc1ccc(C(C(=O)NC2CCCCC2)N(C(=O)Cc2cccs2)c2cccc(F)c2)cc1 (stereo not shown) [Compound 78] |
| 0.1 to 1 µM | O=C(NC1CCCCC1)C(c1ccc(Cl)cc1)N(C(=O)Cc1cccs1)c1cccc(F)c1 (stereo not shown) [Compound 79] |
| 0.1 to 1 µM | Cc1cccc(C(C(=O)NC2CCCCC2)N(C(=O)Cc2cccs2)c2cccc(F)c2)c1 (stereo not shown) [Compound 89] |
| 1 to 10 µM | O=C(NC1CCCCC1)C(c1cccnc1)N(C(=O)Cc1cccs1)c1cccc(F)c1 (stereo not shown) [Compound 90] |
| 0.1 to 1 µM | O=C(NC1CCCCC1)C(c1cccc(O)c1)N(C(=O)Cc1cccs1)c1cccc(F)c1 (stereo not shown) [Compound 91] |
| 0.1 to 1 µM | O=C(NC1CCCCC1)C(c1ccc(O)cc1)N(C(=O)Cc1cccs1)c1cccc(F)c1 (stereo not shown) [Compound 92] |
| ≥ 100 µM | CC(=O)c1cccc(C(C(=O)NC2CCCCC2)N(C(=O)Cc2cccs2)c2cccc(F)c2)c1 (stereo not shown) [Compound 95] |
| 1 to 10 µM | O=C(NC1CCCCC1)C(c1cccc(C(F)(F)F)c1)N(C(=O)Cc1cccs1)c1cccc(F)c1 (stereo not shown) [Compound 96] |

Same assay, conditions: Table 4B; 0.2 μg/ml IDH1 R132H, 50 minutes at room temperature; read-out: IC50, IDH1 R132H Inhibition

| IC50 | Structure (SMILES) |
| --- | --- |
| 0.1 to 1 µM | O=C(NC1CCCCC1)C(c1cc(F)cc(Cl)c1)N(C(=O)Cc1cccs1)c1cccc(F)c1 (stereo not shown) [Compound 102] |
| 0.1 to 1 µM | O=C(NC1CCCCC1)C(c1cc(Cl)ccc1Cl)N(C(=O)Cc1cccs1)c1cccc(F)c1 (stereo not shown) [Compound 103] |
| ≤ 0.1 µM | O=C(NC1CCCCC1)C(c1ccccc1Br)N(C(=O)Cc1cccs1)c1cccc(F)c1 (stereo not shown) [Compound 104] |
| 0.1 to 1 µM | O=C(NC1CCCCC1)C(c1c(F)ccc(F)c1Cl)N(C(=O)Cc1cccs1)c1cccc(F)c1 (stereo not shown) [Compound 105] |
| 0.1 to 1 µM | O=C(NC1CCCCC1)C(c1cc(F)c(F)cc1F)N(C(=O)Cc1cccs1)c1cccc(F)c1 (stereo not shown) [Compound 106] |
